Experiment [1] concerns Escherichia coli. Description: Antibacterial activity against Wild type Escherichia coli BW25113 assessed as inhibition of AcrB efflux pump by mesuring the glucose-induced nile red efflux at 200 uM preincubated with CCCP for 15 mins followed by compound addition after 15 mins nile red added and incubated for 3 hrs in shaker by fluorimetric analysis. Type of experiment: functional, organism-based. The following applies: time 195.0 min.

Experiment [2] has as its system Cell membrane. Description: Induction of outer membrane permeabilization in wild type Escherichia coli BW25113 assessed as increase in nitrocefin hydrolysis at 512 ug/ml measured for 30 mins in presence of CCCP by spectrophotometry analysis. The settings on record: dose 512.0 µg/ml. Format: subcellular.
Experiment [3] has as its system Escherichia coli. Description: Potentiation of TPP-induced antibacterial activity against AcrB deficient Escherichia coli BW25113 assessed as TPP MIC at 128 ug/ml incubated for 18 hrs under aerobic condition by checkerboard titration assay (reference value: 256 ug/ml). Type of experiment: functional. The following applies: dose 128 µg/ml.
The subject of experiment [4] is Escherichia coli. In words: Potentiation of chloramphenicol-induced antibacterial activity against AcrB deficient Escherichia coli BW25113 assessed as chloramphenicol MIC at 128 ug/ml incubated for 18 hrs under aerobic condition by checkerboard titration assay (reference value: 2 ug/ml). The settings on record: dose 128 µg/ml. Format: functional.
Experiment [5] relates to Escherichia coli. In words: Potentiation of chloramphenicol-induced antibacterial activity against AcrB deficient Escherichia coli BW25113 assessed as chloramphenicol MIC at 256 ug/ml incubated for 18 hrs under aerobic condition by checkerboard titration assay (reference value: 2 ug/ml). Type of experiment: functional. The settings on record: dose 256 µg/ml.
In experiment [6] the test system is Escherichia coli. In words: Potentiation of TPP-induced antibacterial activity against AcrB deficient Escherichia coli BW25113 assessed as TPP MIC at 256 ug/ml incubated for 18 hrs under aerobic condition by checkerboard titration assay (reference value: 256 ug/ml). Type of experiment: functional. The following applies: dose 256 µg/ml.
In experiment [7] the test system is Escherichia coli. In words: Potentiation of erythromycin-induced antibacterial activity against AcrB deficient Escherichia coli BW25113 assessed as erythromycin MIC at 128 ug/ml incubated for 18 hrs under aerobic condition by checkerboard titration assay (reference value: 32 ug/ml). Type of experiment: functional. The settings on record: dose 128 µg/ml.
For experiment [8], the system named is Escherichia coli. In words: Potentiation of erythromycin-induced antibacterial activity against AcrB deficient Escherichia coli BW25113 assessed as erythromycin MIC at 256 ug/ml incubated for 18 hrs under aerobic condition by checkerboard titration assay (reference value: 32 ug/ml). The settings on record: dose 256 µg/ml. Format: functional.
Experiment [9] relates to Escherichia coli. In words: Potentiation of TPP-induced antibacterial activity against wild type Escherichia coli BW25113 assessed as TPP MIC at 256 ug/ml incubated for 18 hrs under aerobic condition by checkerboard titration assay (reference value: 1024 ug/ml). The following applies: dose 256 µg/ml. Type of experiment: functional.
The test system of experiment [10] is Escherichia coli. Description: Potentiation of TPP-induced antibacterial activity against wild type Escherichia coli BW25113 assessed as TPP MIC at 128 ug/ml incubated for 18 hrs under aerobic condition by checkerboard titration assay (reference value: 1024 ug/ml). The settings on record: dose 128 µg/ml. Format: functional.
Experiment [11] deals with Escherichia coli. Description: Potentiation of chloramphenicol-induced antibacterial activity against wild type Escherichia coli BW25113 assessed as chloramphenicol MIC at 256 ug/ml incubated for 18 hrs under aerobic condition by checkerboard titration assay (reference value: 16 ug/ml). Format: functional. The settings on record: dose 256 µg/ml.
Experiment [12] relates to Escherichia coli. Description: Potentiation of chloramphenicol-induced antibacterial activity against wild type Escherichia coli BW25113 assessed as chloramphenicol MIC at 128 ug/ml incubated for 18 hrs under aerobic condition by checkerboard titration assay (reference value: 16 ug/ml). Type of experiment: functional. The following applies: dose 128 µg/ml.
For experiment [13], the system named is Escherichia coli. In words: Potentiation of rifampicin-induced antibacterial activity against wild type Escherichia coli BW25113 assessed as rifampicin MIC at 128 ug/ml incubated for 18 hrs under aerobic condition by checkerboard titration assay (reference value: 16 ug/ml). Format: functional. The following applies: dose 128 µg/ml.
Experiment [14] relates to Escherichia coli. Description: Potentiation of rifampicin-induced antibacterial activity against wild type Escherichia coli BW25113 assessed as rifampicin MIC at 256 ug/ml incubated for 18 hrs under aerobic condition by checkerboard titration assay (reference value: 16 ug/ml). The settings on record: dose 256 µg/ml. Format: functional.
Experiment [15] relates to Cell membrane. Description: Disruption of inner membrane potential in wild type Escherichia coli BW25113 at 512 ug/ml preincubated for 10 mins followed by glucose stimulation and CCCP addition by DiOC2 probe based fluorimetric analysis. Format: subcellular. The settings on record: dose 512.0 µg/ml.
For experiment [16], the system named is Escherichia coli. In words: Potentiation of erythromycin-induced antibacterial activity against wild type Escherichia coli BW25113 assessed as erythromycin MIC at 256 ug/ml incubated for 18 hrs under aerobic condition by checkerboard titration assay (reference value: 128 ug/ml). The settings on record: dose 256 µg/ml. Type of experiment: functional.
In experiment [17] the test system is Escherichia coli. In words: Potentiation of erythromycin-induced antibacterial activity against wild type Escherichia coli BW25113 assessed as erythromycin MIC at 128 ug/ml incubated for 18 hrs under aerobic condition by checkerboard titration assay (reference value: 128 ug/ml). Type of experiment: functional. The settings on record: dose 128 µg/ml.
Experiment [18] has as its system Escherichia coli. In words: Antibacterial activity against AcrB deficient Escherichia coli BW25113 assessed as inhibition of bacterial growth at 256 ug/ml after 18 hrs by microtitre broth dilution assay. Format: functional, organism-based. The settings on record: dose 256.0 µg/ml. For orientation: Dilution methods test growth across graded concentrations, often in twofold steps.

The subject of experiment [19] is Escherichia coli. In words: Antibacterial activity against wild type Escherichia coli BW25113 assessed as inhibition of bacterial growth at 256 ug/ml after 18 hrs by microtitre broth dilution assay. Type of experiment: functional, organism-based. The following applies: dose 256.0 µg/ml.
Experiment [20] has as its system Escherichia coli. Description: Potentiation of erythromycin-induced antibacterial activity against wild type Escherichia coli BW25113 assessed as fold reduction in erythromycin MIC at 128 ug/ml incubated for 18 hrs under aerobic condition by checkerboard titration assay relative to erythromycin MIC alone. Format: functional. The following applies: dose 128 µg/ml.

The test system of experiment [21] is Escherichia coli. Description: Potentiation of erythromycin-induced antibacterial activity against Escherichia coli BW25113 assessed as erythromycin MIC at 32 ug/ml incubated for 18 hrs under aerobic condition in presence of EDTA by checkerboard titration assay. Format: functional, organism-based. The following applies: dose 32.0 µg/ml.
For experiment [22], the system named is Escherichia coli. In words: Potency index, ratio of A3 MIC to compound MIC for potentiation of erythromycin-induced antibacterial activity against Escherichia coli BW25113. Type of experiment: functional.
Experiment [23] concerns Escherichia coli. In words: Potentiation of TPP-induced antibacterial activity against AcrB deficient Escherichia coli BW25113 assessed as TPP MIC at 200 ug/ml incubated for 18 hrs under aerobic condition by checkerboard titration assay (reference value: 256 ug/ml). Type of experiment: functional. The settings on record: dose 200 µg/ml.
Experiment [24] deals with Escherichia coli. Description: Potentiation of chloramphenicol-induced antibacterial activity against AcrB deficient Escherichia coli BW25113 assessed as chloramphenicol MIC at 200 ug/ml incubated for 18 hrs under aerobic condition by checkerboard titration assay (reference value: 2 ug/ml). The following applies: dose 200 µg/ml. Format: functional.
The test system of experiment [25] is Escherichia coli. In words: Potentiation of erythromycin-induced antibacterial activity against AcrB deficient Escherichia coli BW25113 assessed as erythromycin MIC at 200 ug/ml incubated for 18 hrs under aerobic condition by checkerboard titration assay (reference value: 32 ug/ml). The settings on record: dose 200 µg/ml. Type of experiment: functional.
The subject of experiment [26] is Escherichia coli. In words: Potentiation of rifampicin-induced antibacterial activity against wild type Escherichia coli BW25113 assessed as rifampicin MIC at 200 ug/ml incubated for 18 hrs under aerobic condition by checkerboard titration assay (reference value: 16 ug/ml). Type of experiment: functional. The following applies: dose 200 µg/ml.
Experiment [27] relates to Escherichia coli. Description: Potentiation of TPP-induced antibacterial activity against wild type Escherichia coli BW25113 assessed as TPP MIC at 200 ug/ml incubated for 18 hrs under aerobic condition by checkerboard titration assay (reference value: 1024 ug/ml). Type of experiment: functional. The settings on record: dose 200 µg/ml.
Experiment [28] relates to Escherichia coli. Description: Potentiation of chloramphenicol-induced antibacterial activity against wild type Escherichia coli BW25113 assessed as chloramphenicol MIC at 200 ug/ml incubated for 18 hrs under aerobic condition by checkerboard titration assay (reference value: 16 ug/ml). Format: functional. The following applies: dose 200 µg/ml.
The test system of experiment [29] is Escherichia coli. In words: Potentiation of erythromycin-induced antibacterial activity against wild type Escherichia coli BW25113 assessed as erythromycin MIC at 200 ug/ml incubated for 18 hrs under aerobic condition by checkerboard titration assay (reference value: 128 ug/ml). Type of experiment: functional. The settings on record: dose 200 µg/ml.

Molecules are shown by their SMILES. Calls of active or inactive are those of the source. The rule behind the calls is not given here. Peptide text beside a SMILES is read from it. * marks the point of attachment. βNA = c1ccc2cc(N*)ccc2c1

In general, MIC refers to the lowest concentration that inhibits growth of the organism. As for `CC(C)NCCOc1cc(C(N)=O)cc2ccccc12`, the outcome with Escherichia coli [1], in the experiment with Escherichia coli [18] and with Escherichia coli [21] was Active. In addition, the result in the experiment with Cell membrane [2], with Cell membrane [15] and in the experiment with Escherichia coli [19] was inactive. Also, the minimal inhibitory concentration (MIC) with Escherichia coli [3] was found to be 256 µg/mL; in the experiment on Escherichia coli [4] it was 2 µg/mL; with Escherichia coli [5] it was 2 µg/mL; in the experiment on Escherichia coli [6] it was 256 µg/mL; in the experiment with Escherichia coli [7], 32 µg/mL; with Escherichia coli [8], 32 µg/mL. The minimal inhibitory concentration (MIC) with Escherichia coli [9] is 1020 µg/mL; in the experiment on Escherichia coli [10], 1020 µg/mL; in the experiment on Escherichia coli [11], 16 µg/mL; in the experiment with Escherichia coli [12] it was 16 µg/mL; in the experiment on Escherichia coli [13], 16 µg/mL; in the experiment with Escherichia coli [14], 16 µg/mL. Moreover, the MIC in the experiment with Escherichia coli [16] and with Escherichia coli [17] was 16 µg/mL each time. In the experiment on Escherichia coli [20], the “fold change (FC)” value is 8. Besides, the Ratio in the experiment on Escherichia coli [22] is recorded as 16.
Take `N=C(N)NCCC[C@H](NC(=O)[C@@H](N)Cc1ccccc1)C(=O)Nc1ccc2ccccc2c1` [PABETAN] (H-Phe-Arg-βNA): the minimal inhibitory concentration (MIC) in the experiment on Escherichia coli [23] turned out to be 256 µg/mL; in the experiment on Escherichia coli [24], 2 µg/mL; in the experiment on Escherichia coli [25], 16 µg/mL; with Escherichia coli [26], 2 µg/mL; in the experiment on Escherichia coli [27], 256 µg/mL; in the experiment with Escherichia coli [28], 2 µg/mL. In the experiment with Escherichia coli [29], the MIC stood at 16 µg/mL.

Source of the values: ChEMBL document CHEMBL4715814, “Design, synthesis and biological activity evaluation of novel 4-subtituted 2-naphthamide derivatives as AcrB inhibitors” (2018).
